In assay [1] the target is T1, MARK4 (Homo sapiens, UniProt Q96L34).
T1 sequence (Q96L34 1-752): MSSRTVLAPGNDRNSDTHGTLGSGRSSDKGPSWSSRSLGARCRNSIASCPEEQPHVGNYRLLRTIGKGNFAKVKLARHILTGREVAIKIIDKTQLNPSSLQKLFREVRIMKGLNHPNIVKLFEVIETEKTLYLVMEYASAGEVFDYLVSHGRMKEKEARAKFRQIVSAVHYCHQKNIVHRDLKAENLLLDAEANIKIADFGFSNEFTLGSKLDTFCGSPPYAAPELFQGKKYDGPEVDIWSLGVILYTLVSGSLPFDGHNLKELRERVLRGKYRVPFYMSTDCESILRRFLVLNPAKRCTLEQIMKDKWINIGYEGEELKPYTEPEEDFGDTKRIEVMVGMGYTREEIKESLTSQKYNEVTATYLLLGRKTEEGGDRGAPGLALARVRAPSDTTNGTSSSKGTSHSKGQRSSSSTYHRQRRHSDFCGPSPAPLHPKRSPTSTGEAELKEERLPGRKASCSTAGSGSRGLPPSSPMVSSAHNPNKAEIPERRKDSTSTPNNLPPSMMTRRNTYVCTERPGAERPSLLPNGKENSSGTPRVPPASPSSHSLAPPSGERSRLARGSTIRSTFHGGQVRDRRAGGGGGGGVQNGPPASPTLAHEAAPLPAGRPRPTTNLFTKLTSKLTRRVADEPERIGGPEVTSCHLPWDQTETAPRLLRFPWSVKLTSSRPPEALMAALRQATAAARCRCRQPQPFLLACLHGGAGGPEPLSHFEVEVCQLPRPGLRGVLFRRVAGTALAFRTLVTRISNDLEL
Put plainly: ATPase inhibition assay (Malachite green) with purified MARK4. Format: biochemical. The note with it: MARK4 5 μM, ATP 200 μM, ligand 0–10 μM, 1 h at 25°C, read-out: IC50 against MARK4. How it is done: Purified MARK4 was used to conduct ATPase inhibition experiment following the reported method ([18], [30]). The concentration of the purified protein used was 5 μM, the ligand concentration was 0–10 μM and the substrate (ATP) was 200 μM. The ligand concentration was increased gradually against a given concentration of MARK4. The experiment involved combining MARK4 with freshly prepared ATP, resulting in a final reaction mixture volume of 100 μL. This mixture was incubated for 1 h at 25°C. This is followed by the addition of Malachite green solution (200 μL) to quench the reaction. The samples were allowed to incubate at room temperature for color development. Finally, the reaction mixture (100 μL) was filled into 96-well plates and analyzed using a multiscan ELISA reader (λ = 620 nm). All experimental reactions were conducted in triplicate to ensure statistical reliability.

In assay [2] the target is T1, MARK4. Put plainly: Fluorescence quenching binding assay. To be noted: modified Stern-Volmer equation; excitation 280 nm; read-out: binding constant (K) (converted). How it is done: A fluorescence-based binding assay was conducted to evaluate the binding efficiency of ligands. During the titration, the concentration of the pure MARK4 protein was kept constant while increasing concentrations of the ligand ([31]). The emission data were collected using a Jasco FP-6200 spectrofluorimeter (Japan), with a slit width of 10 nm and medium sensitivity. The samples were excited at 280 nm, and the emission spectra were recorded. Blank subtracted spectra are reported, and each measurement was performed in triplicate. For fluorescence values, we took the inner filter effect into account ([32]). The binding constant (K) was calculated using the Stern-Volmer (SV) (Equations 1, 2). (1) F0/F=1+KsvC (2) logF0−F/F=logK+nlogC Where F0 denotes the fluorescence intensity of the protein in the absence of ligands, whereas F indicates the fluorescence intensity when ligands are present. K represents the binding constant, n indicates the number of binding sites, and C refers to the concentration of the ligand.

The next assay concerns the target MARK4 enzyme. The note with it: cited from earlier work.
[3] abbreviates: read-out: IC50 MARK4 enzyme in vitro.

Structures are written as SMILES. Read-outs that look alike come from different tables or passages of the source.

For the compound `N=C(N)N1CCN(c2cc(-c3ccc(C(F)(F)F)cc3)ncn2)CC1` [Compound 8, 4-(6-(4-(Trifluoromethyl)phenyl)pyrimidin-4-yl)piperazine-1-carboximidamide], the IC50 at MARK4 [1] worked out at 15.8 ± 0.92 µM.

Regarding `N=C(N)N1CCN(c2cc(-c3ccc(OC(F)(F)F)cc3)ncn2)CC1` [Compound 10, 4-(6-(4-(Trifluoromethoxy)phenyl)pyrimidin-4-yl)piperazine-1-carboximidamide], at MARK4 [1], the IC50 is 7.28 ± 0.49 µM.

Consider `N=C(N)N1CCN(c2cc(-c3cc4ccccc4s3)ncn2)CC1` [Compound 9, 4-(6-(benzo[b]thiophen-2-yl)pyrimidin-4-yl)piperazine-1-carboximidamide], for which the IC50 at MARK4 [1] came out at 6.68 ± 0.8 µM. On MARK4 [2], the Kd is 8.77 µM.

Regarding `N=C(N)N1CCN(c2cc(-c3ccc(F)c(Cl)c3)ncn2)CC1` [Compound 7, 4-(6-(3-Chloro-4-fluorophenyl)pyrimidin-4-yl)piperazine-1-carboximidamide], the IC50 on MARK4 [1] stood at 16.5 ± 1.71 µM.

In the case of `COc1cc2c(cc1OC)C(=O)C(CC1CCN(Cc3ccccc3)CC1)C2` (centres unmarked) [donepezil], the 50% inhibitory concentration (IC50) at MARK4 enzyme (setting [3]) was 5.3 µM.

Regarding `N=C(N)N1CCN(c2cc(-c3ccc(Cl)c(Cl)c3)ncn2)CC1` [Compound 6, 4-(6-(3,4-Dichlorophenyl)pyrimidin-4-yl)piperazine-1-carboximidamide], the IC50 on MARK4 [1] was determined as 11.8 ± 1.19 µM.

For the compound `O=C(/C=C/c1ccc(O)c(O)c1)O[C@H](Cc1ccc(O)c(O)c1)C(=O)O` [Rosmarinic acid], the IC50 at MARK4 enzyme (reference inhibitor of MARK4, read-out: IC50 of the reference inhibitor) was around 6.2 µM.

Regarding `CCN(C)C(=O)Oc1cccc([C@H](C)N(C)C)c1` [rivastigmine], the IC50 at MARK4 enzyme (setting [3]) was 6.74 µM.

`Cc1ccc(-c2cc(N3CCN(C(=N)N)CC3)ncn2)cc1` [Compound 5, 4-(6-(p-Tolyl)pyrimidin-4-yl)piperazine-1-carboximidamide]: at MARK4 [1], the concentration for half-maximal inhibition (IC50) came to 5.35 ± 0.22 µM. The Kd at MARK4 [2] is 6.67 µM.

Usually IC50 stands for the midpoint of a concentration-inhibition curve.
